Data from patent US20190144499A1, “PHENYL P[…], AND MANUFACTURING METHOD AND PHARMACEUTICAL APPLICATION THEREOF” (Jiangsu Hengrui Medicine Co., Ltd., priority 2016, published 2019).
Where a SMILES comes first, the peptide text is derived from it. [ ]: non-standard residue; d: D form. The star is where a group is joined. Piperidin1yl(4-NH2,4-COOH) = NC1(C(=O)O)CCN(*)CC1; N(Indan-2-yl)Gly = O=C(O)CNC1Cc2ccccc2C1; Gly(NCH2CH2Ph) = O=C(O)CNCCc1ccccc1; Morpholide = C1CN(*)CCO1

How the values were obtained:
[1] = molecular target: T1, human KOR (h-KOR) receptors (Homo sapiens, UniProt P41145); assay: h-KOR agonist activity test (cAMP/CRE-luciferase reporter in HEK293/h-KOR/CRE cells); format: cell-based; conditions: Forskolin, 4 hours, luciferase chemiluminescence, read-out: EC50 on agonizing h-KOR receptor and affecting cAMP levels
T1 construct: expressed in transfected cells
T1 sequence (P41145 whole entry): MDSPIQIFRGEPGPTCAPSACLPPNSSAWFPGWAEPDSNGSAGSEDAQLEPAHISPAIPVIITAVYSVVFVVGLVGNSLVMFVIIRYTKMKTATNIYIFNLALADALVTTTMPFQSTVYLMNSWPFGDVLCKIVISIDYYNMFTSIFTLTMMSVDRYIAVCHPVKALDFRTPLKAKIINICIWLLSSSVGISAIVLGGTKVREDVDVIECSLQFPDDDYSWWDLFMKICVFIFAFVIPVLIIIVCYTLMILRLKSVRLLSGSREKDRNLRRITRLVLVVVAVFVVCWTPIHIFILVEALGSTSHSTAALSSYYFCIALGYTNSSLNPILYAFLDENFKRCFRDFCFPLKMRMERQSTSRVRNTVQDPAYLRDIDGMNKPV
Excerpt: The objective of this experiment is to determine the agonistic effect of the compounds of the present invention on human KOR (h-KOR) receptors, and to evaluate the in vitro activity of the compounds according to the values of EC50.
The compounds of the present invention can activate h-KOR receptor, thereby reducing intracellular cAMP levels. The second messenger cAMP enters the nucleus and binds to the CRE of the DNA, thereby initiating the expression of the downstream luciferase. Luciferase reacts with its substrate to emit fluorescence, and the measured fluorescence signals reflect the agonistic activity of the compounds.
The activity of the test example compounds on agonizing h-KOR and affecting downstream cAMP levels was tested by the following method.
KOR/pcDNA3.1 (+) and CRE/pGL4.29 were transferred into HEK293 cells. G418 and hygromycin were added into the culture medium, and HEK293/KOR/CRE monoclonal cell lines were screened in a 96-well cell culture plate.
HEK293/h-KOR/CRE monoclonal cells were cultured in a DMEM/high glucose medium (10% FBS, 1 mg/ml G418, 200 μg/ml hygromycin, mixed uniformly), and passaged every 3 days. On the day of the experiment, a cell suspension was prepared with a fresh cell medium, added to a 96 well plate (BD, #356692) with 20,000 cells/well, and incubated in 5% CO2 at 37° C. On the second day, the compound was dissolved in pure DMSO at a concentration of 20 mM, then formulated with DMSO to a first concentration of 200 nM and diluted in 3 fold concentration gradient to 8 concentrations. 90 μl of DMSO were added to blank and control wells. The compound solution was diluted 20-fold with DMEM/hyperglucose (SH30243.01B, Hyclone) medium containing […]. The cell culture plates inoculated on the first day were taken out, and 10 μl of the diluted drug or the control (0.5% DMSO) was added to each well. The plate was gently shaken, and placed at 37° C. for 4 hours. In a 96-well cell culture plate, 100 μl of luciferase assay solution (Promega, # E6110) was added to each well. The plate was placed for 5 minutes at room temperature. The chemiluminescence value was measured using Victor 3.0. The EC50 values of the compounds were calculated using Graphpad Prism software based on each concentration of the compound and the corresponding signal value.
The activity of the compounds of the present invention on agonizing h-KOR and affecting downstream cAMP levels was determined by the above test, and the EC50 values are shown in Table 1.1.

[2] = Pharmacokinetics assay in rats after intravenous administration; format: in vivo; conditions: both sexes, Sprague-Dawley, rat, plasma, SD rats, 1 mg/kg; for Vd: read-out: Apparent Distribution Volume Vz; for AUC: read-out: Area Under Curve AUC; for clearance: read-out: Clearance CL; for half-life: read-out: Half-Life t1/2 (converted); for MRT: read-out: Mean Residence Time MRT
Method: (§1) Rats were used as test animals. The drug concentration in plasma at different time points was determined by LC/MS/MS after intravenous administration of the compounds of Examples 2, 5 and 8 to the rats. The pharmacokinetic behavior of the compounds of the present invention was studied and evaluated in SD rats.
12 Sprague-Dawley (SD) rats, half male and half female, were purchased from SINO-BRITISH SIPPR/BK LAB. ANIMAL LTD., CO, with License No.: SOCK (Shanghai) 2008-0016.
The appropriate amount of the test compounds was weighed, and added with 5% 5% DMSO+5% PEG400+90% normal saline successively.
After an overnight fast, 12 SD rats, half male and half female, were divided into 3 groups equally, and administered intravenously at a dose of an administration volume of 5 mL/kg.
(§2) In the venous group, blood (0.2 mL) was taken from the orbital sinus before administration and 0.25, 0.5, 1.0, 2.0, 4.0, 8.0, 11.0 and 24.0 hours after administration. The samples were stored in heparinized tubes, and centrifuged for 10 minutes at 3,500 rpm to separate the blood plasma. The plasma samples were stored at −20° C.
The concentration of the test compounds in SD rat plasma after intravenous administration was determined by LC-MS/MS.

[3] = Pharmacokinetics assay in dogs after intravenous administration; format: in vivo; conditions: male, dog, plasma, Beagle dogs, 0.3 mg/kg
Method: as §1, with “Beagle dogs” for “Rats”, “compound” for “compounds”, “Example” for “Examples 2,”, “5” for “5 and 8”, “Beagle dogs.” for “rats.”, “Beagle dogs.” for “SD rats.”
3 Beagle dogs in one group, male, were purchased from Medicilon Pharmaceutical Technology (Shanghai) Co., Ltd.
The appropriate amount of the test compound was weighed, and added with 100% normal saline.
After an overnight fast, 3 Beagle dogs in one group, male, were administered intravenously at a dose of an administration volume of 2 mL/kg.
as §2, with “(1” for “(0.2”, “jugular vein” for “orbital sinus”, “5 minutes, 15 minutes,” for “0.25,”, “12.0” for “11.0”, “−80°” for “−20°”
The concentration of the test compound in Beagle dog plasma after intravenous administration was determined by LC-MS/MS.

[4] = system: carrageenan inflammatory pain model in rats; assay: Carrageenan-induced inflammatory pain in rats, plantar tenderness test (electronic Von Frey); format: in vivo, Wistar rats; conditions: for threshold of tenderness: 30 minutes before detection, 4 hours after carrageenan, model group 7.6 g, blank control about 20 g
Method: A carrageenan inflammatory pain model in rats was established to evaluate the therapeutic effect of KOR agonists on inflammatory pain in rats.
Male Wistar rats were purchased from Shanghai Slac Laboratory Animal Co., Ltd. (Shanghai, China, Certificate No. 2015000513408, License No. SCXK (Shanghai) 2012-0002). The rats were 150-180 g, and fed at 5/cage, in a condition of 12/12 hours light/dark cycle adjustment, constant temperature of 23±1° C., humidity of 50˜60%, and free access to food and water. After purchase, the animals adapted to this condition for 7 days before the experiment was started.
1% λ-Carrageenan was placed in physiological saline, and stirred overnight to form a jelly-like suspension.
The experimental method was modified in accordance with the method of Document 1 (Kazunari Nakao et al.). Before inflammatory pain experiment, rats were randomly divided into the following groups according to body weight: blank control group, model group, Example 5-0.1 mg/kg group, and Example 5-0.3 mg/kg group. There were 8 rats in each group. Inflammatory pain model was made in Wistar rat footpads that were subcutaneously injected with 1% carrageenan (100 μl). After 4 hours, the rats were subjected to a plantar tenderness test to evaluate the mechanical pain threshold. Single tail vein administration of the drug (1 ml/kg) was carried out 30 minutes before detection, and the control group and the model group were given corresponding solvents.
Electronic Von Frey: UGO BASILE, type 38450.
The experimental data were expressed as mean±standard deviation (S.D.). Statistical comparisons were performed using the excel software t test.

| SMILES | EC50 [1] [pM] | Vd [2] [L/kg] | AUC [2] [ng·h/mL] | clearance [2] [mL/min/kg] | half-life [2] [min] | MRT [2] [min] | also measured |
| --- | --- | --- | --- | --- | --- | --- | --- |
| CC(C)C[C@@H](NC(=O)[C@@H](Cc1ccccc1)NC(=O)CNCC1(c2ccccc2)CC1)C(=O)N[C@H](CCCCN)C(=O)N1CCC(N)(C(=O)O)CC1 [Example 1, 4-amino-1-((6R,9R,12R)-12-(4-aminobutyl)-6-benzyl-9-isobutyl-4,7,10-trioxo-1-(1-phenylcyclopropyl)-2,5,8,11-tetraazatridecan-13-oyl)piperidine-4-carboxylic acid] | 56 | – | – | – | – | – | – |
| CC(C)C[C@@H](NC(=O)[C@@H](Cc1ccccc1)NC(=O)CNC[C@@H](C)c1ccccc1)C(=O)N[C@H](CCCCN)C(=O)N1CCC(N)(C(=O)O)CC1 [Example 2, 4-amino-1-((2R,5R,8R,14S)-2-(4-aminobutyl)-8-benzyl-5-isobutyl-4,7,10-trioxo-14-phenyl-3,6,9,12-tetraazapentadecan-1-oyl)piperidine-4-carboxylic acid] | 15 | 0.28 ± 0.046 | 2560 ± 427 | 6.66 ± 1.28 | 29.3 ± 1.56 | 31.5 ± 5.94 | – |
| CC(C)C[C@@H](NC(=O)[C@@H](Cc1ccccc1)NC(=O)CNCC(C)(C)c1ccccc1)C(=O)N[C@H](CCCCN)C(=O)N1CCC(N)(C(=O)O)CC1 [Example 3, 4-amino-1-((2R,5R,8R)-2-(4-aminobutyl)-8-benzyl-5-isobutyl-14-methyl-4,7,10-trioxo-14-phenyl-3,6,9,12-tetraazapentadecan-1-oyl)piperidine-4-carboxylic Acid] | 4 | – | – | – | – | – | – |
| CC(C)C[C@@H](NC(=O)[C@@H](Cc1ccccc1)NC(=O)CNC[C@@H](c1ccccc1)C(C)C)C(=O)N[C@H](CCCCN)C(=O)N1CCC(N)(C(=O)O)CC1 [Example 4, 4-amino-1-((2R,5R,8R,14R)-2-(4-aminobutyl)-8-benzyl-5-isobutyl-15-methyl-4,7,10-trioxo-14-phenyl-3,6,9,12-tetraazahexadecan-1-oyl)piperidine-4-carboxylic Acid] | 9 | – | – | – | – | – | – |
| CC(C)C[C@@H](NC(=O)[C@@H](Cc1ccccc1)NC(=O)CNC[C@H](C)c1ccccc1)C(=O)N[C@H](CCCCN)C(=O)N1CCC(N)(C(=O)O)CC1 [Example 5, 4-amino-1-((2R,5R,8R,14R)-2-(4-aminobutyl)-8-benzyl-5-isobutyl-4,7,10-trioxo-14-phenyl-3,6,9,12-tetraazapentadecan-1-oyl)piperidine-4-carboxylic Acid] | 1 | 0.41 ± 0.112 | 1700 ± 363 | 10.1 ± 1.8 | 28.1 ± 5.52 | 33.4 ± 7.44 | Vd ([3]; read-out: Apparent Distribution Volume Vz): 0.296 ± 0.019 L/kg; AUC ([3]; read-out: Area Under Curve AUC): 1980 ± 165 ng·h/mL; clearance ([3]; read-out: Clearance CL): 2.54 ± 0.21 mL/min/kg; half-life ([3]; read-out: Half-Life t1/2 (converted)): 80.4 ± 2.4 min; MRT ([3]; read-out: Mean Residence Time MRT): 85.8 ± 4.8 min; increase of threshold of tenderness compared with the model group ([4]; 0.1 mg/kg i.v. once): 79.5%; threshold of tenderness ([4]; 0.1 mg/kg i.v. once): 13.7 g; increase of threshold of tenderness compared with the model group ([4]; 0.3 mg/kg i.v. once): 204.5%; threshold of tenderness ([4]; 0.3 mg/kg i.v. once): 23.2 g |
| CC(C)C[C@@H](NC(=O)[C@@H](Cc1ccccc1)NC(=O)CN[C@H]1C[C@@H]1c1ccccc1)C(=O)N[C@H](CCCCN)C(=O)N1CCOCC1 [Example 6, (R)—N—((R)-6-amino-1-morpholino-1-oxohexan-2-yl)-4-methyl-2-((R)-3-phenyl-2-(2-(((1S,2R)-2-phenylcyclopropyl)amino)acetamido)propanamido)pentanamide] | 79 | – | – | – | – | – | – |
| CCC(CNCC(=O)N[C@H](Cc1ccccc1)C(=O)N[C@H](CC(C)C)C(=O)N[C@H](CCCCN)C(=O)N1CCC(N)(C(=O)O)CC1)c1ccccc1 (stereo partly drawn) [Example 7, 4-amino-1-((2R,5R,8R)-2-(4-aminobutyl)-8-benzyl-5-isobutyl-4,7,10-trioxo-14-phenyl-3,6,9,12-tetraazahexadecan-1-oyl)piperidine-4-carboxylic Acid] | 3 | – | – | – | – | – | – |
| CC(C)C[C@@H](NC(=O)[C@@H](Cc1ccccc1)NC(=O)CNCCc1ccccc1)C(=O)N[C@H](CCCCN)C(=O)N1CCC(N)(C(=O)O)CC1 [Example 8, 4-amino-1-((2R,5R,8R)-2-(4-aminobutyl)-8-benzyl-5-isobutyl-4,7,10-trioxo-14-phenyl-3,6,9,12-tetraazatetradecan-1-oyl)piperidine-4-carboxylic Acid] (H-[Gly(NCH2CH2Ph)][dF][dL][dK]-{Piperidin1yl(4-NH2,4-COOH)}) | 13 | 0.499 ± 0.111 | 1520 ± 436 | 11.6 ± 3.3 | 30.1 ± 2.28 | 34 ± 6.72 | – |
| CC(C)C[C@@H](NC(=O)[C@@H](Cc1ccccc1)NC(=O)CNC1Cc2ccccc2C1)C(=O)N[C@H](CCCCN)C(=O)N1CCOCC1 [Example 10, (R)—N—((R)-6-amino-1-morpholino-1-oxohexan-2-yl)-2-((R)-2-(2-((2,3-dihydro-1H-inden-2-yl)amino)acetamido)-3-phenylpropanamido)-4-methylpentanamide] (H-[N(Indan-2-yl)Gly][dF][dL][dK]-Morpholide) | > 1000 | – | – | – | – | – | – |
